{
  "source": "patent US7148328B2",
  "about": "“Compositions and methods for regulating autolytic processes in bacteria” (Trustees of Dartmouth College, priority 2001, dated 2006)",
  "type_in_all_cases": "cell-based, S. aureus",
  "key": {"RAT mutant [1]": {"system": "RAT mutant", "experiment": "Subinhibitory antibiotic added to growing culture at mid-log phase, optical density followed", "conditions": "200 ng/ml penicillin (subinhibitory) added at OD650 nm of 0.5, mid-log phase, FIG. 1", "description": "(§1) RAT plays a role in regulating autolytic activity of S. aureus. […] To evaluate whether the cell lysis of the RAT mutant was additive to the effect of a subinhibitory concentration of penicillin, 200 ng/ml of penicillin was added to a growing culture of the RAT mutant at an OD650 nm of 0.5, corresponding to the mid-log phase. […] This finding is consistent with the additive effect of penicillin upon the lytic propensity of the RAT mutant late in the growth cycle. […] In comparison to the parental strain without antibiotics, the RAT mutant with subinhibitory concentrations of penicillin has a 3–4 log kill."}, "wild-type strain": {"system": "wild-type strain", "experiment": "Subinhibitory antibiotic added to growing culture at mid-log phase, optical density followed", "conditions": "200 ng/ml penicillin (subinhibitory) added at OD650 nm of 0.5, mid-log phase, FIG. 1"}, "RAT mutant [2]": {"system": "RAT mutant", "experiment": "Plating of antibiotic-treated cultures on agar plates without antibiotic selection (kill)", "description": "as §1"}},
  "data": [
    {"substance": "penicillin", "values": [
      {"measurement": "change in optical density (cell lysis) after addition of antibiotic", "setting": "RAT mutant [1]", "value": "further reduction in optical density"},
      {"measurement": "change in optical density (growth) after addition of antibiotic", "setting": "wild-type strain", "value": "no increase in optical density"},
      {"measurement": "more kill of RAT mutant than the parental strain", "setting": "RAT mutant [2]; cultures with subinhibitory antibiotic plated on agar without antibiotic selection, compared with parental strain", "value": "1–2 log"},
      {"measurement": "kill of RAT mutant in comparison to the parental strain without antibiotics", "setting": "RAT mutant [2]; subinhibitory concentrations of penicillin, compared with parental strain without antibiotics", "value": "3–4 log"}
    ]}
  ]
}
